Test systems include Staphylococcus aureus; Pasteurella multocida; Klebsiella pneumoniae; Bibersteinia trehalosi; Escherichia coli BL21; Enterobacter cloacae; Acinetobacter baumannii; Staphylococcus aureus MR.
Common to all, as to test: ≥ marks a high value that may be exact or a test limit, other limits are often not marked, values filed in µg/mL are converted to µM
Assay [1] concerns Staphylococcus epidermidis ATCC 12228.
For assay [2], the system named is Streptococcus pyogenes DMST 17020.
Assay [3] has as its system Mannheimia haemolytica Serovar 1.
Assay [4] concerns Mannheimia haemolytica Serovar 6.
The test system of assay [5] is Salmonella enterica subsp. arizonae.
For assay [6], the system named is Corynebacterium pseudotuberculosis ATCC 19410.
The subject of assay [7] is Pseudomonas aeruginosa PAO1.
Assay [8] relates to Pseudomonas aeruginosa PA14.
Assay [9] deals with Staphylococcus aureus ATCC 25923.
In assay [10] the test system is Klebsiella pneumoniae KpC+001825971.
Assay [11] deals with Staphylococcus aureus ATCC 12600.
Assay [12] concerns Klebsiella pneumoniae ATCC 13883.
In assay [13] the test system is Escherichia coli ATCC 25922.
Assay [14] has as its system Escherichia coli KpC+001812446.

In brackets after ≈: the same amount, converted by molar mass.

Experimental findings from DBAASP are described below.

Turning to `CSCC[C@H](NC(=O)[C@H](CS)NC(=O)[C@H](CC(C)C)NC(=O)[C@@H](NC(=O)[C@@H](N)Cc1cnc[nH]1)[C@@H](C)O)C(=O)NCC(=O)N[C@@H](CCCCN)C(=O)N[C@@H](C)C(=O)N[C@H](C(=O)N[C@@H](Cc1ccc(O)cc1)C(=O)O)[C@@H](C)O` [HTLCMGKATY], the figures for the MIC in assay [1] and in assay [2] were 250 µM (≈ 281 µg/mL) and ≥ 250 µM, respectively.
For `CC[C@H](C)[C@H](NC(=O)[C@H](CCCN=C(N)N)NC(=O)[C@@H](NC(=O)[C@@H](NC(=O)[C@H](CCCN=C(N)N)NC(=O)[C@H](CC(C)C)NC(=O)[C@@H](NC(=O)[C@@H](NC(=O)[C@@H]1CCCN1C(=O)CNC(=O)[C@H](Cc1ccc(O)cc1)NC(=O)[C@H](CCCCN)NC(=O)[C@H](CCCCN)NC(=O)[C@@H](NC(=O)[C@@H](NC(=O)[C@H](Cc1cnc[nH]1)NC(=O)[C@@H](NC(=O)[C@@H](NC(=O)[C@H](CCCCN)NC(=O)[C@H](CCCN=C(N)N)NC(=O)[C@@H](NC(=O)[C@@H](NC(=O)[C@H](CCCN=C(N)N)NC(=O)[C@H](CCCN=C(N)N)NC(=O)[C@H](CC(C)C)NC(=O)[C@H](CC(N)=O)NC(=O)[C@@H](N)CCCCN)[C@@H](C)CC)[C@@H](C)CC)[C@@H](C)CC)[C@@H](C)CC)[C@@H](C)CC)[C@@H](C)CC)[C@@H](C)O)[C@@H](C)CC)[C@@H](C)CC)[C@@H](C)CC)C(=O)N[C@H](C(=O)NCC(N)=O)[C@@H](C)CC` [KNLRRIIRKIIHIIKKYGPTILRIIRIIG], the minimal inhibitory concentration (MIC) was determined as 1.08 µM (≈ 3.8 µg/mL) in assay [3]; 0.598 µM (≈ 2.1 µg/mL) in [4]; 1.42 µM (≈ 5 µg/mL) in the assay on Staphylococcus aureus; 1.91 µM (≈ 6.7 µg/mL) in [5]; 2.37 µM (≈ 8.3 µg/mL) in the assay on Pasteurella multocida; 5.7 µM (≈ 20 µg/mL) in [6]. The MIC amounted to 1.2 µM (≈ 4.2 µg/mL) in [7], 0.37 µM (≈ 1.3 µg/mL) against Klebsiella pneumoniae and 2.85 µM (≈ 10 µg/mL) in the assay on Bibersteinia trehalosi.
As for `CSCC[C@H](NC(=O)[C@H](CS)NC(=O)[C@H](CC(C)C)NC(=O)[C@@H](NC(=O)[C@@H](N)Cc1cnc[nH]1)[C@@H](C)O)C(=O)N[C@@H](CC(=O)O)C(=O)NCC(=O)NCC(=O)N[C@@H](C)C(=O)N[C@H](C(=O)N[C@@H](Cc1ccc(O)cc1)C(=O)O)[C@@H](C)O` [HTLCMDGGATY], the MIC in assay [2] was ≥ 50 µM.
As for `CC[C@H](C)[C@H](NC(=O)[C@H](CCCCN)NC(=O)[C@H](CCCCN)NC(=O)[C@@H](NC(=O)[C@H](CCCCN)NC(=O)[C@H](C)NC(=O)[C@H](C)NC(=O)[C@H](CC(C)C)NC(=O)[C@H](CCCN=C(N)N)NC(=O)[C@H](CCCCN)NC(=O)[C@H](CC(C)C)NC(=O)[C@@H](NC(=O)[C@@H](N)CCCCN)[C@@H](C)CC)[C@@H](C)CC)C(=O)N[C@@H](CC(C)C)C(N)=O` [KILKRLAAKIKKIL], the MIC in assay [8] was 4 µM (≈ 6.54 µg/mL); in the assay with Escherichia coli BL21 it was 2 µM (≈ 3.27 µg/mL); in assay [9], > 32 µM; in assay [10] it was ≥ 32 µM; in assay [11], 4 µM (≈ 6.54 µg/mL); against Enterobacter cloacae, ≥ 32 µM. Also, the MIC in [7] is 4 µM (≈ 6.54 µg/mL); in assay [12], 8 µM (≈ 13.1 µg/mL); in assay [13], 4 µM (≈ 6.54 µg/mL); against Acinetobacter baumannii, ≥ 32 µM; in [14], 8 µM (≈ 13.1 µg/mL); in the assay with Staphylococcus aureus MR, ≥ 32 µM.
